# Tests used:
# recombinant human CLK3 = target: T1, recombinant human CLK3 (Homo sapiens, UniProt P49761); experiment: CLK3 kinase assay (LANCE Ultra); type: biochemical; details: 0.5 nM CLK3, 300 μM ATP, 3 hours at 30° C.
# T1 construct: purchased Thermo Fisher Scientific PV3826
# Outline: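 Recombinant human CLK3 (0.5 nM) phosphorylating ULight-CREBtide (50 nM) with 300 μM ATP for 3 h at 30 °C; stopped with EDTA, detected by LANCE Ultra TR-FRET using Eu-anti-phospho-CREB antibody (2 nM, 1 h). IC50 from sigmoidal 4-parameter fit.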
# MDA-MB-231 cells = experiment: MDA-MB-231 proliferation assay; type: cell-based; details: Homo sapiens, 72 hours, YO-PRO-1 readout
# Outline: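 Cells seeded at 750/well in DMEM with 10% FBS, treated 72 h at 37 °C, 0.5% DMSO final. Cell number read by YO-PRO-1 fluorescence (485/530 nm), normalised to DMSO (100%) and time-of-addition cells (0%); 4-parameter logistic fit with maximum fixed at 100%.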
# [1] = test system: phospho-SRSF6 levels in MDA-MB-468 cells; experiment: Inhibition of phospho-SRSF6 levels in MDA-MB-468 cells (Western blot); type: cell-based; details: Homo sapiens, 100 nM, 2 hours, normalized by GAPDH, read-out: % Intensity of p-SRSF6 signal at 100 nM compared to DMSO control
# Procedure: FIG. 1: FIG. 1 provides a representative Western blot showing reduction of phosphorylated-SRSF6 (P-SRSF6) in MDA-MB 468 cells by compounds of the invention. GAPDH was probed for by Western blotting to control for equal protein loading and for normalization of samples. The numbers below the blots show percent intensity of P-SRSF6 signal at 100 nM compared to DMSO control.
# Assessment of Inhibition of Phospho-SRSF6 Levels in MDA-MB-468 Cells
# MDA-MB-468 cells (ATCC, HTB-132) were cultured in DMEM (BioConcept cat. no. 1-26F03) supplemented with 10% FBS (Sigma cat. no. F9665), 1% Na-pyruvate (Sigma cat. no. S8636), 1% Penicillin-Streptomycin (BioConcept cat. no. 4-01F00-H). When cells reached a density of 70% in 6-well plates (TPP cat. no. 92006), they were treated either with the test compound vehicle DMSO, or with experimental compounds at a final concentration of 100 nM for 2 hours. Thereafter, the culture medium was removed and cells were collected by scraping in Lysis Buffer (20 mM Tris HCl pH7.5, 150 mM NaCl, 1 mM EGTA, 1 mM EDTA, 1% Triton and 1% NP-40) containing protease and phosphatase inhibitors (Halt™ Protease&Phosphatase inhibitor cocktail 100× ThermoScientific cat. no. 1861281) and 1 mM PMSF (Fluka cat. no. 93482). Cleared lysates were stored in Eppendorf tubes at −80° C. until use, and protein concentration in lysates was determined using Pierce 660 nm Protein Assay Reagent (ThermoScientific cat. no. 22660). 20 μg proteins were diluted in 4× Laemmli buffer (Biorad cat. no. 161-0747) containing 10% beta-mercaptoethanol, separated by SDS-PAGE using 10% gels, and then transferred to PVDF membranes (Trans Blot Turbo Transfer Pack BioRad cat. no. 1704156) by Trans-Blot® Turbo™ System semidry blotting methodology (BioRad). Primary antibodies were incubated in TBS-0.1% Tween-20 buffer containing 3% BSA Bovine Albumin Fr.V (Millipore cat. no. 81-053-3) overnight at 4° C. The following primary antibodies were used: Mouse anti-phosphoepitope SR proteins clone 1H4 (Millipore cat. no. MABE50) diluted 1:5000, and rabbit anti-GAPDH clone 14C10 (Cell Signaling cat. no. 2118S) to control for equal protein loading, diluted 1:2000. HRP-conjugated secondary antibodies were incubated one hour at room temperature diluted 1:5000 in TBS-0.1% Tween-20 buffer containing 5% nonfat-dried bovine milk (Sigma cat. no. M7409). The following secondary antibodies were used: Goat anti-mouse-HRP (Jackson cat. no. 115-035-146) and goat anti-rabbit-HRP (Jackson cat. no. 111-035-144). Membranes were incubated with ECL Prime Western Blot Detection Reagent (Amersham cat. no. RPN2236) to detect specific signals using Fusion SOLO S device (Vilber Lourmat). Pixel intensity of the phopsho-SRSF6 (MW 55 kDa in reference to markers) and GAPDH (MW 37 kDa) signals in the Western blots were determined using Evolution-Capt image analysis software (v17.01, Vilber Lourmat). DMSO control was used to set the phospho-SRSF6 signal at baseline, phospho-SRSF6 signals for each sample were normalized by the respective GAPDH signals and percent intensity of P-SRSF6 signal at 100 nM compound compared to DMSO control was calculated (see FIG. 1).
# T1 sequence (P49761 whole entry): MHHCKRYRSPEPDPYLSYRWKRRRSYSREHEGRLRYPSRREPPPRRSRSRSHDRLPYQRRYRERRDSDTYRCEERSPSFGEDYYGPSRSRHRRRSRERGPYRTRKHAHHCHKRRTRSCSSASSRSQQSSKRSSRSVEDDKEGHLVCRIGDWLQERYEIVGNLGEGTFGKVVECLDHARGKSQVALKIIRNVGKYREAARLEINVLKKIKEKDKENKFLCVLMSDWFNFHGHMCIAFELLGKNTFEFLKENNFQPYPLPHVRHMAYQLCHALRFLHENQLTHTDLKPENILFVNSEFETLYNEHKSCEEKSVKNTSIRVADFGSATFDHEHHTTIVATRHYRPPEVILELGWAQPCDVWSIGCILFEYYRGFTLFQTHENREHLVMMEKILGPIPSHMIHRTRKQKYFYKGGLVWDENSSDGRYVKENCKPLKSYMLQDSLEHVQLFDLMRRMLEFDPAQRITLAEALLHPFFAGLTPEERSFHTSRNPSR
Compound,IC50 (recombinant human CLK3) [nM],GI50 (MDA-MB-231 cells) [nM],activity at 0.1 µM [1] [%]
"CO/N=C1\c2cc(O[C@H]3CC[C@H](N)CC3)ccc2-c2ncnc(N)c2C1(C)C [Example 1, (6Z)-8-(trans-4-aminocyclohexoxy)-6-methoxyimino-5,5-dimethyl-benzo[h]quinazolin-4-amine]",9.1,407,19
"COc1ccc2c(c1)/C(=N\OCCCC#N)C(C)(C)c1c(N)ncnc1-2 [Example 6, 4-[(Z)-(4-amino-8-methoxy-5,5-dimethyl-benzo[h]quinazolin-6-ylidene)amino]oxybutanenitrile]",32.1,> 2000,41
"CC1(C)/C(=N/OCCO)c2cc(O[C@H]3CC[C@H](N)CC3)ccc2-c2ncnc(N)c21 [Example 19, 2-[(Z)-[4-amino-8-(trans-4-aminocyclohexoxy)-5,5-dimethyl-benzo[h]quinazolin-6-ylidene]amino]oxyethanol]",20.2,445,25
"C#CCO/N=C1\c2cc(O[C@H]3CC[C@H](N)CC3)ccc2-c2ncnc(N)c2C1(C)C [Example 21, (6Z)-8-(trans-4-aminocyclohexoxy)-5,5-dimethyl-6-prop-2-ynoxyimino-benzo[h]quinazolin-4-amine]",27.2,569,12
"CC1(C)/C(=N/OC[C@@H]2CNC(=O)O2)c2cc(O[C@H]3CC[C@H](N)CC3)ccc2-c2ncnc(N)c21 [Example 38, (5S)-5-[[(Z)-[4-amino-8-(trans-4-aminocyclohexoxy)-5,5-dimethyl-benzo[h]quinazolin-6-ylidene]amino]oxymethyl]oxazolidin-2-one]",4.16,> 2000,48
"CO/N=C1\c2cc(OC)ccc2-c2ncnc(N)c2C1(C)C [Example 40, (6Z)-8-methoxy-6-methoxyimino-5,5-dimethyl-benzo[h]quinazolin-4-amine]",21.7,> 2000,45
"CN1C[C@@H](CO/N=C2\c3cc(O[C@H]4CC[C@@H](N)CC4)ccc3-c3ncnc(N)c3C2(C)C)OC1=O [Example 88, (5S)-5-[[(Z)-[4-amino-8-(cis-4-aminocyclohexoxy)-5,5-dimethyl-benzo[h]quinazolin-6-ylidene]amino]oxymethyl]-3-methyl-oxazolidin-2-one]",8.8,,21
"Nc1ncnc2c1C1(CCCC1)/C(=N/O)c1cc(O[C@H]3CC[C@@H](N)CC3)ccc1-2 [Example 104, 4-amino-8-(cis-4-minocyclohexoxy)spiro[benzo[h]quinazoline-5,1′-cyclopentane]-6-one oxime]",10.4,41.3,
"CCOCCO/N=C1\c2cc(O[C@H]3CC[C@@H](N)CC3)ccc2-c2ncnc(N)c2C1(C)C [Example 109, (6Z)-8-(cis-4-aminocyclohexoxy)-6-(2-ethoxyethoxyimino)-5,5-dimethyl-benzo[h]quinazoline-4-amine]",,156,21
"CC1(C)/C(=N/OCCCS(C)(=O)=O)c2cc(O[C@H]3CC[C@@H](N)CC3)ccc2-c2ncnc(N)c21 [Example 110, (6Z)-8-(cis-4-aminocyclohexoxy)-5,5-dimethyl-6-(3-methylsulfonylpropoxyimino)benzo[h]quinazoline-4-amine]",31.8,> 2000,
"CC(C)(C#N)CCO/N=C1\c2cc(O[C@H]3CC[C@@H](N)CC3)ccc2-c2ncnc(N)c2C1(C)C [Example 111, 4-[(Z)-[4-amino-8-(cis-4-aminocyclohexoxy)-5,5-dimethyl-benzo[h]quinazolin-6-ylidene]amino]oxy-2,2-dimethyl-butanenitrile]",,106,16
"CC1(C)/C(=N/OCCCCF)c2cc(O[C@H]3CC[C@@H](N)CC3)ccc2-c2ncnc(N)c21 [Example 113, (6Z)-8-(cis-4-aminocyclohexoxy)-6-(4-fluorobutoxyimino)-5,5-dimethyl-benzo[h]quinazolin-4-amine]",21.2,167,
"CC1(C)/C(=N/OCCCC(F)(F)F)c2cc(O[C@H]3CC[C@@H](N)CC3)ccc2-c2ncnc(N)c21 [Example 114, (6Z)-8-(cis-4-aminocyclohexoxy)-5,5-dimethyl-6-(4,4,4-trifluorobutoxyimino)benzo[h]quinazolin-4-amine]",48.9,373,

# Further compounds by falling GI50 (MDA-MB-231 cells), results first:
IC50 (recombinant human CLK3) [nM],GI50 (MDA-MB-231 cells) [nM],Compound,activity at 0.1 µM [1] [%]
4.3,1200,"COc1ccc2c(c1)/C(=N\OC[C@@H]1CNC(=O)O1)C(C)(C)c1c(N)ncnc1-2 [Example 13, (5S)-5-[[(Z)-(4-amino-8-methoxy-5,5-dimethyl-benzo[h]quinazolin-6-ylidene)amino]oxymethyl]oxazolidin-2-one]",28
9.1,630,"CO/N=C1\c2cc(CC3CCNCC3)ccc2-c2ncnc(N)c2C1(C)C [Example 70, (6Z)-6-methoxyimino-5,5-dimethyl-8-(4-piperidylmethyl)benzo[h]quinazolin-4-amine]",34
23.4,307,"CC1(C)/C(=N/OCCc2ccccc2)c2cc(O[C@H]3CC[C@@H](N)CC3)ccc2-c2ncnc(N)c21 [Example 106, (6Z)-8-(cis-4-aminocyclohexoxy)-5,5-dimethyl-6-(2-phenylethoxyimino)benzo[h]quinazoline-4-amine]",
2.1,271,"C=C(c1ccc2c(c1)/C(=N\OC)C(C)(C)c1c(N)ncnc1-2)[C@H]1CC[C@H](N)CC1 [Example 4, (6Z)-8-[1-(trans-4-aminocyclohexyl)vinyl]-6-methoxyimino-5,5-dimethyl-benzo[h]quinazolin-4-amine]",32
16.1,269,"CC1(C)/C(=N/OCCCC#N)c2cc(O[C@H]3CC[C@H](N)CC3)ccc2-c2ncnc(N)c21 [Example 27, 4-[(Z)-[4-amino-8-(trans-4-aminocyclohexoxy)-5,5-dimethyl-benzo[h]quinazolin-6-ylidene]amino]oxybutanenitrile]",26
28.3,184,"COCCO/N=C1\c2cc(O[C@H]3CC[C@@](C)(N)CC3)ccc2-c2ncnc(N)c2C1(C)C [Example 103, (6Z)-8-(cis-4-amino-4-methyl-cyclohexoxy)-6-(2-methoxyethoxyimino)-5,5-dimethyl-benzo[h]quinazoline-4-amine]",
28.9,71.7,"CC1(C)/C(=N/OCCC(F)(F)F)c2cc(O[C@H]3CC[C@@H](N)CC3)ccc2-c2ncnc(N)c21 [Example 116, (6Z)-8-(cis-4-aminocyclohexoxy)-5,5-dimethyl-6-(3,3,3-trifluoropropoxyimino)benzo[h]quinazoline-4-amine]",
8.8,66.2,"CC1(C)/C(=N/OCCOCC(F)(F)F)c2cc(O[C@H]3CC[C@@H](N)CC3)ccc2-c2ncnc(N)c21 [Example 112, (6Z)-8-(cis-4-aminocyclohexoxy)-5,5-dimethyl-6-[2-(2,2,2-trifluoroethoxy)ethoxyimino]benzo[h]quinazolin-4-amine]",

# From US12583825B2, “Benzo[h]quinazolin-4-amine and thieno[3,2-h]quinazolin-4-amine derivatives for the treatment of cancer” (Redona Therapeutics, Inc., priority 2020, dated 2026)
